This note sets out measurements from article PMC6946862 (Molecular carcinogenesis, 2019).

In this assay the target is NAE1 (APP-BP1/UBA3, NEDD8-activating enzyme E1 regulatory subunit) (Homo sapiens, UniProt Q13564). The assay can be described thus: in vitro NEDD8 initiation conjugation assay. In kind it is biochemical.
Chain of NAE1 (APP-BP1/UBA3, NEDD8-activating enzyme E1 regulatory subunit) (Q13564 2-534): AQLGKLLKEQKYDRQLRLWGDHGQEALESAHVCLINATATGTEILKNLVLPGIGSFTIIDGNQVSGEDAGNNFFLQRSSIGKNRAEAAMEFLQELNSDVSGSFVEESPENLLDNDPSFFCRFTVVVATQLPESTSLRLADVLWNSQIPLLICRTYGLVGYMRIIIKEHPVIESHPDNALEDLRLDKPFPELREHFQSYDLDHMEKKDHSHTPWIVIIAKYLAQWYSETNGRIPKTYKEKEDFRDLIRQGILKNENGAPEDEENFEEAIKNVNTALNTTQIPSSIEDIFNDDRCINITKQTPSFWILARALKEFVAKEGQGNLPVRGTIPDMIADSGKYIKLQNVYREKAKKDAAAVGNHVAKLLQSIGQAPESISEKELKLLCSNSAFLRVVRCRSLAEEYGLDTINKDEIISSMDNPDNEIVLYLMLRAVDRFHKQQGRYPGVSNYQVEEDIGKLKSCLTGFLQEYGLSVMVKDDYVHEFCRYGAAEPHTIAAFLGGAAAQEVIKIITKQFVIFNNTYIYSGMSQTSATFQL
Chain of NAE1 (APP-BP1/UBA3, NEDD8-activating enzyme E1 regulatory subunit) (Q8TBC4 2-463 partner): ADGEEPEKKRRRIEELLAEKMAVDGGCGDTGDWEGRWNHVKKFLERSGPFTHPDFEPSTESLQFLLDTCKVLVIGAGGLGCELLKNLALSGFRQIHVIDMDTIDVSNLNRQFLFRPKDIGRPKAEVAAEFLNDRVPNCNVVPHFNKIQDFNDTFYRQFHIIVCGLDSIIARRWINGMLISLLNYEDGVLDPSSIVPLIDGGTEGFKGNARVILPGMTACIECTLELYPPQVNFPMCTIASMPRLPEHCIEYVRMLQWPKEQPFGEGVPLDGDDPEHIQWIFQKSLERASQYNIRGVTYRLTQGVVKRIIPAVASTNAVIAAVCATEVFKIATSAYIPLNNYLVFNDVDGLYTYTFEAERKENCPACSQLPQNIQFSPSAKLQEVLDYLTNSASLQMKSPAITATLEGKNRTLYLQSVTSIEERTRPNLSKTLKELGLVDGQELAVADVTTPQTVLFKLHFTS
Chain of NAE1 (APP-BP1/UBA3, NEDD8-activating enzyme E1 regulatory subunit) (P61081 whole entry partner): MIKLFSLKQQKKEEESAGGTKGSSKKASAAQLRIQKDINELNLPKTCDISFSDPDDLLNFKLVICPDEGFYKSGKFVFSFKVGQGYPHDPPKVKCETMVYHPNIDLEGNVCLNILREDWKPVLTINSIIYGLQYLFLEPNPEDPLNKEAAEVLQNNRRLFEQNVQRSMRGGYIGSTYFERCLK
Chain of NAE1 (APP-BP1/UBA3, NEDD8-activating enzyme E1 regulatory subunit) (Q15843 1-76 partner): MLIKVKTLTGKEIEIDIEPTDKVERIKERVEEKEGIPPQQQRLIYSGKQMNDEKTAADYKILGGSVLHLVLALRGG

Turning to `CC(C)=CCc1c(O)c(CC=C(C)C)c2oc3c(O)ccc(O)c3c(=O)c2c1O` [Gartanin], the IC50 – broadly, the concentration that inhibits the measured activity by half – was ~10.3 µM.
